Read-outs that look alike come from different tables or passages of the source. Each block holds one molecule with its values, some of them ahead of it.
What was measured:
[1] = system: contraction of rat uterus induced by PGE2; assay: inhibitory effects of compounds on contraction of rat uterus induced by PGE2; parameters: species or system rat (Sprague Dawley); settings: contraction induced by 0.3 μM PGE2; isolated pseudo pregnant rat uterus strips, 28° C.; compound concentration not given
Protocol: (ii) The inhibitory effects of compounds on contraction of rat uterus induced by PGE2
Pseudo pregnant rat uterus (Sprague Dawley, 200-300 g, induced by oestradiol […] s.c. 18-24 hours before experiment) was isolated and longitudinal strips of 1-1.5 cm were set up in Locke-Ringer solution containing low Ca^2+, aerated with mixed gas (oxygen 95%+carbon dioxide 5%) at 28° C.

[2] = biological target: prostaglandin E2 receptor; assay: inhibition of [^3 H]-PGE2 receptor binding in rat uterus membrane fraction; settings: 5 nM [^3 H]-PGE2, rat uterus crude membrane fraction, pH 6.0, 1 hour at room temperature, read-out: IC50, inhibitory effects of PGE2 receptor binding in rat
Protocol: (i) The measurement of the inhibition of [^3 H]-PGE2 receptor binding
The standard assay mixture contained 5 nM [^3 H]-PGE2 (50 μl), test compounds (50 μl) and crude membrane fraction obtained from rat uterus (1.2 mg protein/ml, 100 μl) in a final volume of 200 μl (10 mM potassium phosphate pH 6.0, 0.1M NaCl (buffer A)). After incubation for 1 hour at room temperature, the reaction was stopped by the addition of 3 ml of ice-cold buffer A, after which the mixture was rapidly filtered through a Whatman GF/B glass filter. The radioactivity associated with the filter was measured in ACS II (Amarsham) by liquid scintillation counting. Percent inhibition of specific [^3 H]-PGE2 binding or IC50 value, the concentration required to compete with ^3 H-PGE2 receptor binding by 50% were calculated.

[3] = acute toxicity (LD50) in mouse by oral administration; settings: in vivo
Protocol: For example, the acute toxicity (LD50) in mouse of 6-[(1S, 2R, 3R, 4R)-3-(4-bromophenylsulfonylaminomethyl)bicyclo[2.2.1]heptan-2-yl]-5Z-hexenoic acid (it is described as example 1(y) in specification of the U.S. Pat. No. 5,168,101.) was more than 300 mg/kg by oral administration.

SMILES: CC1(C)[C@H]2C[C@H](NS(=O)(=O)/C=C/c3ccccc3)[C@@H](C/C=C\CCCC(=O)O)[C@@H]1C2 [6 (12), 7-[(1S, 2S, 3S, 5R)-3-(2-phenylvinylsulfonylamino)-6,6-dimethylbicyclo[3.1.1]heptan-2-yl]-5Z-heptenoic acid]
- inhibition of the contraction of rat uterus induced by PGE2 [1]: completely inhibited
- IC50 ([2]; Table II): < 0.01 µM

SMILES: CC1(C)[C@H]2C[C@H](NS(=O)(=O)C=C(c3ccccc3)c3ccccc3)[C@@H](C/C=C\CCCC(=O)O)[C@@H]1C2 [Example 9, 7-[(1S,2S,3S,5R)-3-(2,2-diphenylvinylsulfonylamino)-6,6-dimethylbicyclo[3.1.1]heptan-2-yl]-5Z-heptenoic acid]
- IC50 ([2]; Table II): 0.26 µM

SMILES: Cc1ccc(S(=O)(=O)NCC2C3C=CC(C3)C2C=CCCCC(=O)O)cc1 (stereo not drawn) [U.S. Pat. No. 5168101 1 (aa)]
- IC50 ([2]; Table I): 2 µM

SMILES: O=C(O)CCC/C=C\C1CC2CC(NS(=O)(=O)c3ccc(Br)cc3)C1C2 (stereo not drawn) [U.S. Pat. No. 5168101 1 (b)]
- IC50 ([2]; Table I): 3.5 µM

SMILES: O=C(O)CCC/C=C\[C@@H]1CC[C@H](NS(=O)(=O)c2ccc(Br)cc2)C1 [U.S. Pat. No. 5168101 1 (i)]
- IC50 ([2]; Table I): 2.4 µM

SMILES: Cc1ccc(S(=O)(=O)NCC2C3CCC(C3)C2/C=C\CCCC(=O)O)cc1 (stereo not drawn) [U.S. Pat. No. 5168101 1 (p)]
- IC50 ([2]; Table I): 6.4 µM

SMILES: O=C(O)CCC/C=C\[C@@H]1[C@H]2CC[C@H](C2)[C@H]1CNS(=O)(=O)c1ccc(Br)cc1 [U.S. Pat. No. 5168101 1 (y), 6-[(1S, 2R, 3R, 4R)-3-(4-bromophenylsulfonylaminomethyl)bicyclo[2.2.1]heptan-2-yl]-5Z-hexenoic acid]
- LD50 [3]: > 300 mg/kg
- IC50 ([2]; Table I): 0.62 µM

The remaining molecules from weak to strong by IC50 ([2]; Table I), led by results:

- IC50 ([2]; Table I): 1.6 µM
SMILES: Cc1ccc(S(=O)(=O)NCC2C3CCC(C3)C2C=CCCCC(=O)O)cc1 (stereo not drawn) [U.S. Pat. No. 5168101 1 (x)]

- IC50 ([2]; Table I): 1.2 µM
SMILES: O=C(O)CCC/C=C\C1CCCCC1CNS(=O)(=O)c1ccc(Br)cc1 (stereo not drawn) [U.S. Pat. No. 5168101 1 (t)]

- IC50 ([2]; Table I): 0.82 µM
SMILES: O=C(O)CCCC=CC1C2C=CC(C2)C1CNS(=O)(=O)c1ccc(Br)cc1 (stereo not drawn) [U.S. Pat. No. 5168101 1 (bb)]

- IC50 ([2]; Table I): 0.77 µM
SMILES: O=C(O)CCC/C=C\C1CC2CCC1C(NS(=O)(=O)c1ccc(Br)cc1)C2 (stereo not drawn) [U.S. Pat. No. 5168101 1 (a)]

- IC50 ([2]; Table I): 0.5 µM
SMILES: O=C(O)CCC/C=C\C1CC2CC(NS(=O)(=O)c3ccc(Br)cc3)C1C2 (stereo not drawn) [U.S. Pat. No. 5168101 1 (c)]

- IC50 ([2]; Table I): 0.39 µM
SMILES: O=C(O)CCCC=CC1C2CCC(C2)C1CNS(=O)(=O)c1ccc(Br)cc1 (stereo not drawn) [U.S. Pat. No. 5168101 1 (cc)]

Reference: patent publication US5663417A, “Carbocyclic sulfonamides” (Ono Pharmaceutical Co., Ltd., priority 1993, dated 1997)
